Laboratory results published in patent US20150314021A1, “STERILIZATION METHOD COMPRISING STERILIZATION FLUID AND ULTRASONICALLY GERERATED CAVITATION MICROBUBBLES” (DEVIS TECHNOLOGIES INC., priority 2012, published 2015).
Like-named read-outs stand apart in the source and are kept apart here.

Test system: Bacillus atrophaeus and Bacillus stearothermophilus
Settings: H2O2 alone (no ultrasound)

OO [Hydrogen Peroxide, hydrogen peroxide]
reduction in cell count (1 min exposure): 50.02%
reduction in cell count (5 min exposure): 50.12%
